According to patent US20110124745A1, “Switchable Anionic Surfactants and Methods of Making and Using Same” (priority 2009, published 2011):
Where “and” joins values, the source holds several entries; their conditions need not be identical. Equal values may be shown once.

How the values were obtained:
Format in all cases: physicochemical
[1] = Switching efficiency by 1H NMR, method A ([(CH3)4N]I internal standard); details: relative to (CH3)4NI set to 100
Description: In both methods, to quantify the concentration of surfactant in solution, its ^1H NMR integration was compared to one of two internal standards of known concentration. In addition to the difference in which internal standard was used, the two methods can also be distinguished from each other on the basis of the timing of the addition of the internal standard. In method A, the standard remains in the solution during the process of switching. In method B, the switching is executed first and the DMF solution of known strength and quantity is added in to the solution.
In both methods, the surfactant was turned OFF with CO2 by positioning the needle that supplied the CO2 to the surfactant solution above the solution in such a way that the slow flow of CO2 was allowed to interact with the surfactant solution at the surface. The switching from ON to OFF required 5 min or less. Increasing the surface area, for example, by slightly tilting the vial, expedited the switching from ON to OFF. To turn the surfactant ON, the solution was stirred at 70° C. for 40 min as described above. After each ON cycle, 0.5 mL of D2O was added to the solution to compensate for the loss in the volume caused by evaporation.
The surfactant solution was prepared by combining 0.046 g of octyl 4-hydroxy-3-nitrobenzoate (1N) and 0.136 g of Na2CO3 in 16.0 mL of D2O. To this solution, 11.5 mg of [(CH3)4N]I was added. The resultant solution was homogenized by sonication for 2 min. […] Stirring bars were introduced in vials 3 to 11. […] The surfactant solutions were turned OFF and ON by the procedure described in Example 3.
As the standard, [(CH3)4N]I was added early into the surfactant solution. All the solutions were filtered and the ^1H NMR spectra of all these solutions were recorded. In all cases, the integration of [(CH3)4N]I was set to 100 and compared with the integration of aromatic proton at δ ˜7.3. […] Thus the concentration of the surfactant in these solutions was substantially zero. […] Thus the experimental results established that the surfactant turns ON and OFF with substantially 100% efficiency.

[2] = pH studies of ON and OFF surfactant solutions
Experimental: For pH studies described below, a pH meter (Orion 4 Star Conductivity Benchtop, available from ThermoElectron Corporation, Mass., USA) was used. The pH meter was calibrated before the measurements as per the instructions provided with the pH meter. All solutions were prepared using deionized water. All pH measurements were done at 25° C.
Surfactant solution was prepared by dissolving n-octyl 4-hydroxy-3-nitrobenzoate (0.443 g, 1.502 mmol) and anhydrous Na2CO3 (1.27 g, 12.02 mmol) in 150 mL of deionized water. The resultant solution was homogenized by sonication for 2 min. Aliquots (10.0 mL) of this solution were transferred into eleven different vials numbered as 1, 2, 3, 4, 5, 6, 7, 8, 9, 10, and 11 by Hamilton syringe. The level of the solution in each vial was marked using a marker. Stirring bars were introduced in vials 3 to 11. […] To turn the surfactant OFF, CO2 was slowly bubbled through a solution for 10 min (formation of the OFF form was observed by formation of light yellow solid precipitate). To turn the surfactant ON the solution was heated and stirred while immersed in an oil bath preset at 70° C., for 40 min. The solution in vial 2 was turned OFF. The solution in vial 3 was first turned OFF and then ON. The solution in vial 4 was first turned OFF then ON and finally OFF. After completion of the indicated cycle, each vial was first allowed to cool down to room temperature (if the cycle marked its completion with the surfactant in ON form), the solution was then diluted with deionized water. To be consistent with the previous experiments, all the vials were tightly capped (using […]™) and allowed to stand for 18 h at room temperature (see FIG. 2).

[3] = Switching from (1N) to (1A) using exposure to air; details: D2O with Na2CO3, uncapped, stirred at room temperature, 90 min
Experimental: A solution of anionic surfactant (1A) was prepared by combining octyl 4-hydroxy-3-nitrobenzoate (1N) (0.023 g) and Na2CO3 (0.068 g) in 8.0 mL of D2O. The resultant solution was homogenized by sonication for 2 min. Aliquots (1.00 mL) of this solution were transferred by Hamilton syringe with a least count of 0.005 mL, into three different vials, which were labeled as vials A, B and C. Visual observations were made of vials A, B and C after 0, 30 and 90 min of stirring at room temperature under separate conditions as described below and are presented in FIG. 3A, 3B and 3C, respectively. […] The solution in vial A remained in the ON form (1A) throughout the experiment and it appeared as a yellow homogeneous solution that was free of any solids. A magnetic stir bar was introduced in vials B and C. The surfactant solutions in vials B and C were turned OFF by allowing a stream of CO2 provided by a needle to blow, CO2 at the surface of the solutions (the needle was not allowed to dip or touch the surface of the solution). Vial C was then capped and its cap was supplemented by […]™ to inhibit CO2 leakage. Thus at the beginning of this experiment, which is pictured in FIG. 3A, vial A held a solution in the ON form, and vials B and C held a solution in the OFF form. Vial B was then uncapped and stirred under passive exposure to air. Vial C was stirred under a passive CO2 headgas. […]

[4] = pKa of the protonated (neutral) form

Structure (SMILES)	Proton integration at ~7.3 δ ([1]; D2O with Na2CO3, vial 1, control, never switched (ON))	Proton integration at ~7.3 δ ([1]; D2O with Na2CO3, vials 3, 5, 7, 9, 11: ON/OFF cycles of Table 1 ending ON (70° C., 40 min))	pH when turned OFF ([2]; 0.01 M compound (1) + 0.08 M Na2CO3, after CO2 bubbling, 25° C.)	pH when turned ON ([2]; 0.01 M compound (1) + 0.08 M Na2CO3, after heating at 70° C. for 40 min, measured at 25° C.)	pH of Original stock solution (ON) ([2]; 0.01 M compound (1) neutral form + 0.08 M Na2CO3 in water, 25° C.)	average pH value of the solution in ON form ([2]; ON form after cycling)	pH of the solution ([2]; vial 1, control, never switched (ON), 1.502 mmol (1N) + 12.02 mmol Na2CO3 in 150 mL water)	pH of the solution ([2]; vials 3, 5, 7, 9, 11: cycles of Table 1 ending ON)	Proton integration at ~7.3 δ ([1]; filtered D2O solution, vials 2, 4, 6, 8, 10: cycles of Table 1 ending OFF (CO2))	conversion of OFF form to ON form by passive exposure to air [3]	pKa [4]	average pH value of the solutions in the OFF form ([2]; OFF form)	pH of the solution ([2]; vials 2, 4, 6, 8, 10: cycles of Table 1 ending OFF)
CCCCCCCCOC(=O)c1ccc(O)c([N+](=O)[O-])c1 [compound (1A), 2-nitro-4-(octyloxycarbonyl)phenolate]	24	23 and 24 and 22 and 20	8.02	8.78	10.87	9.31	10.85	9.26 and 9.24 and 9.22 and 9.44 and 9.38	–	–	–	–	–
CCCCCCCCOC(=O)c1ccc(O)c([N+](=O)[O-])c1 [compound (1N), octyl 4-hydroxy-3-nitrobenzoate]	–	–	–	–	–	–	–	–	0	passive exposure to air is sufficient	~5.5	7.73	7.88 and 7.70 and 7.89 and 7.35 and 7.83
